Values of other authors as cited in patent US20100004191A1, “Compositions of S-adenosyl-L-methionine” (priority 2008, published 2010).

Experiments:
[1] = test system: alcoholic liver cirrhosis; details: oral; patients with alcoholic liver cirrhosis; compared with placebo treated group
beta-adrenergic = details: L-form vs D-enantiomer

Compound | overall mortality and/or progression to liver transplant [1] | potency relative to the D-enantiomer (beta-adrenergic)
C[S+](CC[C@H](N)C(=O)[O-])C[C@H]1O[C@@H](n2cnc3c(N)ncnc32)[C@H](O)[C@@H]1O (stereo partly drawn) [S-adenosyl-L-methionine] | 29% | –
CC(C)NCC(O)COc1cccc2ccccc12 (centres unmarked) [propranolol] | – | 100 times
